Laboratory results as given in patent US20250074892A1, “CARBONYL BRIDGED HETEROCYCLIC COMPOUND, AND COMPOSITION AND APPLICATION THEREOF” (BEIJING SCITECH-MQ PHARMACEUTICALS LIMITED, priority 2022, published 2025).

Experiments:
HT29 cells = assay: Inhibition of cell necrosis (CCK8 method), HT29 cells; assay type: cell-based, human
Procedure: (§1) In this assay example 2, under the condition of inducing programmed cell necrosis of HT29 and L929 cell lines, different concentrations of the test compounds were added to test the IC50 of the rescue effect of the test compounds on the programmed necrosis.
(§2) • Compounds: dissolved in DMSO to make a 10 mM solution; • TNF-α: initial concentration of 100 µg/mL; • Z-VAD-FMK: dissolved in DMSO to make a 10 mM solution; • AT-406: dissolved in DMSO to make a 10 mM solution. • Cell lines: HT29 cells were cultured in McCoy's 5A medium containing 10% fetal bovine serum, 100 U/mL penicillin, and 100 µg/mL streptomycin, and L929 cells were cultured in MEM medium containing 10% horse serum, 100 U/mL penicillin, and 100 µg/mL streptomycin.
(§3) 1. The test compound was dissolved in DMSO to form a stock solution, and a gradient dilution was performed; the solution was then diluted with the corresponding culture medium to obtain a solution with 10 times the working concentration.
(§4) 2. The cells in the logarithmic growth phase were diluted with culture medium to a specific cell concentration. 80 µL of the cell suspension was added to a 96-well plate, so that the cell densities of HT29 and L929 were 1.2*10^4 cells/well and 2.0*10^4 cells/well, respectively. The plate was cultured in a 37° C., 5% carbon dioxide incubator overnight.
(§5) 3. […] of the compound solution was added to each well of the 96-well plate inoculated with cells. The compounds to be tested were serially diluted 4-fold to obtain 9 concentrations in duplicate, starting from a maximum concentration of 10 μM. At the same time, a control group without compound addition was set up.
(§6) 4. After the cells were cultured for another 30 minutes, 10 μL of the inducer mixture was added to each well. The final concentrations of Human TNF-α, AT-406 and Z-VAD-FMK in HT29 cells were 20 ng/mL, […] and 20 μM, respectively; and the final concentrations of Murine TNF-α and Z-VAD-FMK in L929 cells were 20 ng/mL and 25 μM, respectively.
(§7) 5. The 96-well plate in which compounds and inducer were added was placed in a 37° C., 5% carbon dioxide incubator for further culture, wherein HT29 cells were cultured for 16 hours and L929 cells were cultured for 4-8 hours. Cell viability was detected by CCK8. GraphPad Prism software was used to prepare a dose-effect curve and IC50 was calculated.

L929 cells = assay: Inhibition of cell necrosis (CCK8 method), L929 cells; assay type: cell-based, mouse
Procedure: as §1, §2, §3, §4, §5, §6, §7

Compound: O=C(C1CCN(c2nccc(-c3ccccc3)n2)CC1)N1N=CCC1c1ccccc1 (stereo not shown) [compound 2, reference compound]
- inhibitory activity against human HT29 cells (HT29 cells; HT29 necrosis): significantly inferior to those of the compounds of the present application
- IC50 (HT29 cells; Homo sapiens, HT-29, 16 h, HT29, Human TNF-α/AT-406/Z-VAD-FMK, 16 hours, CCK8): 400 to 4000 nM
- inhibitory activity against mouse L929 cells (L929 cells; L929 necrosis): almost no inhibitory activities
- IC50 (L929 cells; Mus musculus, L929, L929, Murine TNF-α/Z-VAD-FMK, 4-8 hours, CCK8): > 4 µM
